This is an account of results in patent US10947243B2, “Heteroaryl SYK inhibitors” (Boehringer Ingelheim International GmbH, priority 2014, dated 2021).

One data set has as its target FLT3 (Homo sapiens (Human), UniProt P36888). As to the kind of experiment: FLT3 Kinase Test (Z'-LYTE). The class given is biochemical. As to conditions: comparison compounds, read-out: IC50 in μM (FLT3-Inhibition). How it is done: The activity of FLT3 is measured using the Z′-LYTE™ assay technology from Invitrogen (#PV3191)
The reaction is started by addition of 2.5 μl of the 4×ATP solution.
Positive controls are reaction mixtures containing no test compound; negative controls (blanks) are reaction mixtures containing no kinase. As a further control, the phosphopeptide solution is added to wells without kinase (=100% phosphorylation control).
The reaction is performed for 1 h at room temperature before 5 μl of the development solution is added. After a further incubation for 1 h at room temperature 5 μl of the stop reagent is added.
The output text file is evaluated in an “MS-Excel-VB-Makro” and “GraphPadPrism” (Version 5) (GraphPad Software Inc.) is used to calculate the results. Data for the inhibition of FLT3 are reported in M. data for the inhibition of the protease are reported in % CTL.

Data set [1] concerns the target Recombinant human Aurora B (amino acids 1-344) (Homo sapiens (Human), UniProt Q96GD4). As to the kind of experiment: Aurora B Kinase Test (ADP Glo luminescence). The format is biochemical. How it is done: The activity of the Aurora B kinase protein was determined using the ADP Glo® Luminescence Kinase test (Promega; V9103X).
Serial Dilution is done in 1:10 steps in 100% DMSO.
Then 20 μl Kinase detection mix (Detection Buffer #V913B Promega; Kinase Detection Substrate #V914B Promega) were added and incubated for 40 minutes at room temperature.
(§1) The output file of the reader is a csv file that contains the well number and measured RLU. For data evaluation and calculation, the measurement of the negative control was set as 0% ctrl and the measurement of the positive control was set as 100% ctrl. Based on this values the % value for the measurement of each substance concentration was calculated using an Assay Explorer software (Accelrys). Normally, the % ctrl values calculated are between 0% and 100% values but may also occur outside these limits in individual cases based on variability or compound characteristics. The IC50 values were calculated from the % ctrl values using Assay Explorer software. Calculation: [y=(a−d)/(1+(x/c)^b)+d], a=low value, d=high value; x=conc M; c=IC50 M; b=hill; y=% ctrl.
(In ADP-Glo the light output rises with the ADP produced.)

For data set [2], the target named is Recombinant human Syk (amino acids 342-635) (Homo sapiens (Human), UniProt P43405). As to the kind of experiment: Syk Kinase Test (Kinase Glo luminescence). The class given is biochemical. To be noted: comparison compounds, read-out: IC50 in μM (SYK-Inhibition). How it is done: as §1, with “measured relative light units (RLU).” for “measured RLU.”, “as 100%” for “as 0%”, “as 0%” for “as 100%”, “Calculation: [y=(a−d)/(1+(x/c)^b)+d]” for “Calculation: [y=(a−d)/(1+(x/c)^b)+d],”
A general note: Kinase-Glo reads ATP consumption through a luciferase reaction.

Data set [3] is described as follows: Human Liver Microsomal Stability Test. The class given is in vitro ADME. To be noted: human liver microsomes. The protocol:
The metabolic degradation for a specific SYK-inhibitor is performed at 37° C. with pooled human liver microsomes (human liver microsomes are commercially available as “BD UltraPool™” by Corning Life Sciences, Fogostraat 12, 1060 LJ Amsterdam, The Netherlands). The final incubation volume of 100 μl per time point contains TRIS buffer pH 7.6 at RT (0.1 M), magnesium chloride (5 mM), microsomal protein (1 mg/ml) and the test compound at a final concentration of 1 μM.
Following a short preincubation period at 37° C., the reaction is initiated by addition of beta-nicotinamide adenine dinucleotide phosphate in its reduced form (NADPH, 1 mM) and terminated by transfering an aliquot into solvent after different time points. Additionally, the NADPH-independent degradation is monitored in incubations without NADPH, terminated at the last time point.
The quenched (terminated) incubations are then pelleted by centrifugation (10000 g, 5 min).
An aliquot of the supernatant is assayed by LC-MS/MS for the remaining amount of parent compound. The half-life (t½ INVITRO) is determined by the slope of the semilogarithmic plot of the concentration-time profile.
The intrinsic clearance (CL_[…]) is calculated by considering the amount of protein in the incubation: CL_[…] [μl/min/mg protein]=(Ln 2/(t½INVITRO [min]*protein content [mg/ml]))*1000
The protein content [mg/ml] was determined with the “Bicinchoninic Acid Kit” of Sigma Aldrich (commercially available).
The upscaled intrinsic Clearance (CL_UP_INT) is calcuated by considering the liver weight [g liver/kg body weight] and the microsomal recovery [mg protein/g liver]: CL_UP_INT [ml/min/kg]=0.001*CL_[…]*liver weight*microsomal recovery • with microsomal recovery=45 mg protein/g liver • with liver weight=25.7 g liver/kg body weight
The percent hepatic blood flow (% Qh) is finally calculated by considering the human liver blood flow Q [ml/min/kg]: % Qh [%]=((Q*CL_UP_INT)/(Q+CL_UP_INT)/Q)*100 • with liver blood flow (Q)=20.7 ml/min/kg.
(In general: Liver microsomes are vesicles of endoplasmic reticulum, rich in cytochrome P450 enzymes.)

The target of another data set is Human GSK3beta (Homo sapiens (Human), UniProt P49841). As to the kind of experiment: GSK 3β Kinase-Test (Z'-LYTE). As to conditions: comparison compounds, read-out: IC50 in μM (GSK3beta-Inhibition). The class given is biochemical. The protocol: Human GSK3beta (expressed and prified from SF21 cells) is obtained from the University Dundee/Scotland (Dr. James Hastie—Dept. of Biochemistry) in 50 mM Tris (pH7.5); 150 mM NaCl; 0.1 mM EGTA, 270 mM Succrose, 0.1% B-mercaptoethanol, 1 mM benzamidine, 0.2 mM PMSF; sequence see below). The enzyme is diluted to 3.56 μM (168 μg/ml) in enzyme dilution buffer and 6 μl aliquots are stored at −80° C.
Human GSK3beta, sequence (P49841 whole entry): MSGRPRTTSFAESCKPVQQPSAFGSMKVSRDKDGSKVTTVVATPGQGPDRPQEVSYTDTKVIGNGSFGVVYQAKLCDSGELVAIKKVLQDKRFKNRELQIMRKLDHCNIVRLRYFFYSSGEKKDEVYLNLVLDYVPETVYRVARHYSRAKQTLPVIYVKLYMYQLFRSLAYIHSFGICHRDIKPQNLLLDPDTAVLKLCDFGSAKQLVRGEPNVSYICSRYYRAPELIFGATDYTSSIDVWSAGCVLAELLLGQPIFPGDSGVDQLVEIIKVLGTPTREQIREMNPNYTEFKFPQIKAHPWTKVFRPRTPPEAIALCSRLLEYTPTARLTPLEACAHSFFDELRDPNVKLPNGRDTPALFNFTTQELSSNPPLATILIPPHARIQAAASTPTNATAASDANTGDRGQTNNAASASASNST
The activity of GSK3 kinase protein is measured using the Z′-LYTE™ assay technology from Invitrogen (# PV3324).
The assay is performed in 384 black plates from Corning (#3676) in a final volume of 10 μl by adding 5 μl of kinase peptide mix and 2.5 μl of compound dilution. The reaction is started by addition of 2.5 μl of the 4×ATP solution.
Positive controls are reaction mixtures containing no test compound; negative controls (blanks) are reaction mixtures containing no ATP. As a further control, the phosphopeptide solution is added to wells without kinase and without ATP (=100% phosphorylation control). The non inhibited kinase reaction will result in a phosphorylation corresponding to 20%-30% of the phosphorylation control.
The reaction is performed 1 h at room temperature. After 1 h 5 μl of the development solution is added. After a further incubation for 1 h at room temperature 5 μl of the stop reagent is added. Finally the plates are read on a Flex Station II 384 (Molecular Devices).
The output text file is evaluated in an “MS-Excel-VB-Makro” and “GraphPadPrism” (Version 5) (GraphPad Software Inc.) is used to calculate the results. Data for the inhibition of GSK3beta are reported in M. data for the inhibition of the protease are reported in % CTL.

[4] abbreviates: Example numbers of WO 2011/092128.
Where [5] appears, read: Example numbers of WO 2013/014060.
The mark [6] stands for this setting: comparison compounds, Example numbers of WO 2013/014060, read-out: IC50 in μM (AURB-Inhibition).
Setting [7] is: comparison compounds, Example numbers of WO 2013/014060.

Read-outs that look alike come from different tables or passages of the source.

FLT3, sequence (P36888 564-958): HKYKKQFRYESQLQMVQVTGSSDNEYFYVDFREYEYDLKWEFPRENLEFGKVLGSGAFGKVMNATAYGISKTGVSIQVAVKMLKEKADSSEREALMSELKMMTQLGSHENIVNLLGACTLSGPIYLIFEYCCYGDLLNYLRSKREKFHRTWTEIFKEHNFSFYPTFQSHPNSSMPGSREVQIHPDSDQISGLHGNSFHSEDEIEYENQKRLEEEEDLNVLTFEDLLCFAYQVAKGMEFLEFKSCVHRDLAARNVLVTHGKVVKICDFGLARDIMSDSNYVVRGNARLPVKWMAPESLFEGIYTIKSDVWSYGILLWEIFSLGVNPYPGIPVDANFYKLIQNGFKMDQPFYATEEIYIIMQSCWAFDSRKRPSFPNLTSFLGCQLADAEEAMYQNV
Recombinant human Aurora B (amino acids 1-344), sequence (Q96GD4 whole entry, the tested form may be a part): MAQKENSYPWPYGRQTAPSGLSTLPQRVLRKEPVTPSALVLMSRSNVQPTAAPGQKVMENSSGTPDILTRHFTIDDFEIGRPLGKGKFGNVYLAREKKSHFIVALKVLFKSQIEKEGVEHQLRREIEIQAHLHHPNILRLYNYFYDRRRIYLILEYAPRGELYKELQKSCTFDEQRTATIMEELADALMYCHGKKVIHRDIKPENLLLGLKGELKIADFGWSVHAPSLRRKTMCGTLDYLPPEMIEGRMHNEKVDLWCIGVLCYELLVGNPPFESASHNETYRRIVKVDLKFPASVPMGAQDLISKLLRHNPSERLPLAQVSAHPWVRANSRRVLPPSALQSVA

In general, IC50 refers to the midpoint of a concentration-inhibition curve. Turning to `C[C@@H](Oc1nc(-c2cnn(C3CCCCC3)c2)cc2nn(C)cc12)[C@H]1CNC(=O)C1` [Example 7, (R)-4-((R)-1-(6-(1-cyclohexyl-1H-pyrazol-4-yl)-2-methyl-2H-pyrazolo[4,3-c]pyridin-4-yloxy)ethyl)pyrrolidin-2-one], the IC50 is 0.452 µM at FLT3 (setting [4]); 2.33 µM in data set [1] (comparison compounds, Example numbers of WO 2011/092128, read-out: IC50 in μM (AURB-Inhibition)); 0.002 µM in data set [2] (setting [4]); > 10 µM on Human GSK3beta (setting [4]). Besides, the “microsomal stability Cl [% Qh]” value in data set [3] (comparison compounds, Example numbers of WO 2011/092128) was 79 % Qh.
As for `C[C@@H](Oc1nc(-c2cnn(C3CCC(F)(F)CC3)c2)cc2nn(C)cc12)[C@H]1CNC(=O)C1` [Example 10, (4R)-4-[(1R)-1-[6-[1-(4,4-Difluorocyclohexyl)pyrazol-4-yl]-2-methyl-pyrazolo[4,3-c]pyridin-4-yl]oxyethyl]pyrrolidin-2-one], the half-maximal inhibitory concentration (IC50) at FLT3 (setting [5]) was 0.312 µM; in data set [1] (setting [6]), 0.271 µM; in data set [2] (setting [5]), 0.001 µM; on Human GSK3beta (setting [5]), > 10 µM. Besides, the “microsomal stability Cl [% Qh]” value in data set [3] (setting [7]) is 57 % Qh.
Taken in the same sequence, the figures for `C[C@@H](Oc1nc(-c2cc3nn(C)cc3c(O[C@H](C)[C@H]3CNC(=O)C3)n2)cc2nn(C)cc12)[C@@H]1CNC(=O)C1` [Example 11, (4S)-4-[(1R)-1-[2-methyl-6-[2-methyl-4-[(1R)-1-[(3R)-5-oxopyrrolidin-3-yl]ethoxy]-pyrazolo[4,3-c]pyridin-6-yl]pyrazolo[4,3-c]pyridin-4-yl]oxyethyl]pyrrolidin-2-one] were 0.738 µM, 0.752 µM, 0.002 µM, > 10 µM and 24 % Qh.
Consider `C[C@@H](Oc1cc(-c2cscn2)cc2nn(C)cc12)[C@H]1CNC(=O)C1` [Example 29, (4R)-4-[(1R)-1-(2-methyl-6-thiazol-4-yl-indazol-4-yl)oxyethyl]pyrrolidin-2-one], for which the values for the half-inhibitory concentration (IC50) (in data set [1] (read-out: AURB-inhibition IC50-value); in data set [1] (read-out: IC50 in μM (AURB-Inhibition)); on Human GSK3beta (setting [5])) were > 50 µM, 0.293 µM and > 10 µM, respectively. For the same compound, the “microsomal stability Cl [% Qh]” value in data set [3] (setting [7]) amounted to 44 % Qh.
As for `C[C@@H](Oc1nc(-c2ccc(C(F)(F)F)nc2)cc2nn(C)cc12)[C@H]1CNC(=O)C1` [Example 61, (4R)-4-[(1R)-1-[2-methyl-6-[6-(trifluoromethyl)-3-pyridyl]pyrazolo[4,3-c]pyridin-4-yl]oxyethyl]pyrrolidin-2-one], the figures for the IC50 (on FLT3 (setting [5]); in data set [1] (setting [6]); in data set [2] (setting [5])) were 0.411 µM, 0.25 µM and 0.002 µM, respectively. In addition, the “microsomal stability Cl [% Qh]” value in data set [3] (setting [7]) and in data set [3] (percent hepatic blood flow) was <23 % Qh throughout.
Take `COc1cc(-c2cc3nn(C)cc3c(O[C@H](C)[C@H]3CNC(=O)C3)n2)ccc1OC(C)C` [Example 81, (4R)-4-[(1R)-1-[6-(4-isopropoxy-3-methoxy-phenyl)-2-methyl-pyrazolo-[4,3-c]pyridin-4-yl]oxyethyl]-pyrrolidin-2-one]: the IC50 on FLT3 (setting [5]) was 0.514 µM; in data set [1] (setting [6]), 0.949 µM; in data set [2] (setting [5]) it was 0.003 µM. In addition, the “microsomal stability Cl [% Qh]” value in data set [3] (setting [7]) and in data set [3] (compounds of the invention (own Example numbers)) was <23 % Qh in each case.
As to `Cc1c(-c2cc(O[C@H](C)[C@H]3CNC(=O)C3)c3cccnc3c2)cnn1C` [compound 112], the IC50 on FLT3 (setting [5]) is 1.25 µM; in data set [1] (setting [6]), 2.96 µM; in data set [2] (setting [5]), 0.006 µM; on Human GSK3beta (setting [5]) it was > 10 µM. Also, in data set [3] (setting [7]), the “microsomal stability Cl [% Qh]” value is <23 % Qh.
On to `CCCn1cc(-c2cc(O[C@H](C)[C@H]3CNC(=O)C3)c3cccnc3c2)cn1` [compound 114], for which the results for the IC50 (at FLT3 (setting [5]); in data set [1] (setting [6]); at Human GSK3beta (setting [5])) were 0.049 µM, 2.54 µM and > 10 µM, respectively. For the same compound, the “microsomal stability Cl [% Qh]” value in data set [3] (setting [7]) stood at 26 % Qh.
Take `CC(C)n1cc(-c2cc(O[C@H](C)[C@H]3CNC(=O)C3)c3cccnc3c2)cn1` [compound 115]: the IC50 is 0.041 µM on FLT3 (setting [5]), 0.021 µM in data set [1] (setting [6]), 0.0002 µM in data set [2] (setting [5]) and > 10 µM at Human GSK3beta (setting [5]). For the same compound, the “microsomal stability Cl [% Qh]” value in data set [3] (setting [7]) is listed as <23 % Qh.
